# Measured values published in PubChem BioAssay (NCI).
#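 At the GI50, growth is halved. TGI marks complete inhibition of growth.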
# Columns and labels:
# Assay in all cases: NCI anticancer screen, dose series, 384-well format
# [1] = tested on: 786-0 renal
# [2] = tested on: A498 renal
# [3] = tested on: A549 NSCLC
# [4] = tested on: ACHN renal
# [5] = tested on: BT-549 breast
# [6] = tested on: CAKI-1 renal
# [7] = tested on: CCRF-CEM leukemia
# [8] = tested on: COLO 205 colon
# [9] = tested on: DU-145 prostate
# [10] = tested on: EKVX NSCLC
# [11] = tested on: HCC-2998 colon
# [12] = tested on: HCT-116 colon
# [13] = tested on: HCT-15 colon
# [14] = tested on: HL-60(TB) leukemia
# [15] = tested on: HOP-62 NSCLC
# [16] = tested on: HOP-92 NSCLC
# [17] = tested on: HS 578T breast
# [18] = tested on: HT29 colon
# [19] = tested on: IGROV1 ovarian
# [20] = tested on: K-562 leukemia
# [21] = tested on: KM12 colon
# [22] = tested on: LOX IMVI melanoma
# [23] = tested on: M14 melanoma
# [24] = tested on: MALME-3M melanoma
# [25] = tested on: MCF7 breast
# [26] = tested on: MDA-MB-231 breast
# [27] = tested on: MDA-MB-435 melanoma
# [28] = tested on: MDA-MB-468 breast
# [29] = tested on: MOLT-4 leukemia
# [30] = tested on: NCI-H226 lung
# [31] = tested on: NCI-H23 lung
# [32] = tested on: NCI-H322M lung
# [33] = tested on: NCI-H460 NSCLC
# [34] = tested on: NCI-H522 lung
# [35] = tested on: NCI/ADR-RES ovarian
# [36] = tested on: OVCAR-3 ovarian
# [37] = tested on: OVCAR-4 ovarian
# [38] = tested on: OVCAR-5 ovarian
# [39] = tested on: OVCAR-8 ovarian
# [40] = tested on: PC-3 prostate
# [41] = tested on: RPMI-8226 leukemia
# [42] = tested on: RXF 393 renal
# [43] = tested on: SF-268 CNS
# [44] = tested on: SF-295 CNS
# [45] = tested on: SF-539 CNS
# [46] = tested on: SK-MEL-28 melanoma
# [47] = tested on: SK-MEL-5 melanoma
# [48] = tested on: SK-OV-3 ovarian
# [49] = tested on: SN12C renal
# [50] = tested on: SNB-19 CNS
# [51] = tested on: SNB-75 CNS
# [52] = tested on: SW-620 colon
# [53] = tested on: T-47D breast
# [54] = tested on: TK-10 renal
# [55] = tested on: U251 glioblastoma
# [56] = tested on: UACC-257 melanoma
# [57] = tested on: UACC-62 melanoma
# [58] = tested on: UO-31 renal
compound,measurement,setting,value
O=C1[C@H](Cc2ccc(O)cc2)N2C(=O)CCN(C(=O)NCc3ccccc3)[C@H]2CN1Cc1cccc2ccccc12,GI50,[1],2.76 µM
same,TGI,[1],16.9 µM
same,GI50,[2],2.9 µM
same,TGI,[2],9.62 µM
same,GI50,[3],1.83 µM
same,TGI,[3],13.8 µM
same,GI50,[4],10.7 µM
same,TGI,[4],37.7 µM
same,GI50,[5],1.28 µM
same,TGI,[5],11.6 µM
same,GI50,[6],2.15 µM
same,TGI,[6],5.94 µM
same,GI50,[7],1.33 µM
same,TGI,[7],7.73 µM
same,GI50,[8],0.662 µM
same,TGI,[8],10.2 µM
same,GI50,[9],4.25 µM
same,TGI,[9],17.1 µM
same,GI50,[10],6.96 µM
same,TGI,[10],30.7 µM
same,GI50,[11],2.1 µM
same,TGI,[11],15.3 µM
same,GI50,[12],0.738 µM
same,TGI,[12],11.8 µM
same,GI50,[13],18.9 µM
same,TGI,[13],82.9 µM
same,GI50,[14],3.98 µM
same,TGI,[14],15 µM
same,GI50,[15],2.99 µM
same,TGI,[15],11.9 µM
same,GI50,[16],0.386 µM
same,TGI,[16],1.88 µM
same,GI50,[17],0.182 µM
same,TGI,[17],0.77 µM
same,GI50,[18],3.17 µM
same,TGI,[18],15.8 µM
same,GI50,[19],0.353 µM
same,TGI,[19],2.49 µM
same,GI50,[20],0.828 µM
same,TGI,[20],14.1 µM
same,GI50,[21],2.82 µM
same,TGI,[21],13.6 µM
same,GI50,[22],1.15 µM
same,TGI,[22],5.36 µM
same,GI50,[23],2.78 µM
same,TGI,[23],12.4 µM
same,GI50,[24],1.24 µM
same,TGI,[24],5.89 µM
same,GI50,[25],5.44 µM
same,TGI,[25],20 µM
same,GI50,[26],0.556 µM
same,TGI,[26],12 µM
same,GI50,[27],4.85 µM
same,TGI,[27],17.7 µM
same,GI50,[28],3.46 µM
same,TGI,[28],15.6 µM
same,GI50,[29],0.319 µM
same,TGI,[29],1.19 µM
same,GI50,[30],2.95 µM
same,TGI,[30],11.1 µM
same,GI50,[31],4.97 µM
same,TGI,[31],17.7 µM
same,GI50,[32],3.72 µM
same,TGI,[32],19.1 µM
same,GI50,[33],0.858 µM
same,TGI,[33],5.2 µM
same,GI50,[34],0.518 µM
same,TGI,[34],12.6 µM
same,GI50,[35],> 100 µM
same,TGI,[35],> 100 µM
same,GI50,[36],0.632 µM
same,TGI,[36],6.89 µM
same,GI50,[37],2.92 µM
same,TGI,[37],17.2 µM
same,GI50,[38],1.44 µM
same,TGI,[38],9.66 µM
same,GI50,[39],1.35 µM
same,TGI,[39],11.9 µM
same,GI50,[40],1.74 µM
same,TGI,[40],9.23 µM
same,GI50,[41],2.03 µM
same,TGI,[41],12.3 µM
same,GI50,[42],3.22 µM
same,TGI,[42],14.6 µM
same,GI50,[43],0.287 µM
same,TGI,[43],0.792 µM
same,GI50,[44],3.79 µM
same,TGI,[44],13.7 µM
same,GI50,[45],0.564 µM
same,TGI,[45],9.79 µM
same,GI50,[46],1.98 µM
same,TGI,[46],11.4 µM
same,GI50,[47],1.33 µM
same,TGI,[47],4.11 µM
same,GI50,[48],1.66 µM
same,TGI,[48],10.3 µM
same,GI50,[49],2.78 µM
same,TGI,[49],16.8 µM
same,GI50,[50],0.678 µM
same,TGI,[50],21.8 µM
same,GI50,[51],0.421 µM
same,TGI,[51],2.23 µM
same,GI50,[52],7.63 µM
same,TGI,[52],> 100 µM
same,GI50,[53],0.441 µM
same,TGI,[53],3.68 µM
same,GI50,[54],6.57 µM
same,TGI,[54],24.1 µM
same,GI50,[55],0.578 µM
same,TGI,[55],11.2 µM
same,GI50,[56],3.45 µM
same,TGI,[56],14 µM
same,GI50,[57],1.35 µM
same,TGI,[57],8.06 µM
same,GI50,[58],16.1 µM
same,TGI,[58],33.3 µM
C/C(=C\c1csc(C)n1)[C@@H]1C[C@@H]2O[C@]2(C)CCC[C@H](C)[C@H](O)[C@@H](C)C(=O)C(C)(C)[C@@H](O)CC(=O)N1,TGI,[1],0.0871 µM
same,TGI,[2],> 100 µM
same,TGI,[3],> 100 µM
same,GI50,[4],0.0403 µM
same,TGI,[4],> 100 µM
same,TGI,[6],> 100 µM
same,TGI,[9],0.0107 µM
same,GI50,[10],0.024 µM
same,TGI,[10],> 100 µM
same,TGI,[11],0.0123 µM
same,GI50,[13],0.0141 µM
same,TGI,[13],0.384 µM
same,TGI,[16],> 100 µM
same,GI50,[19],0.0276 µM
same,TGI,[19],> 100 µM
same,TGI,[21],> 100 µM
same,TGI,[22],> 100 µM
same,TGI,[23],0.0103 µM
same,TGI,[24],> 100 µM
same,TGI,[25],> 100 µM
same,TGI,[30],> 100 µM
same,GI50,[32],0.0107 µM
same,TGI,[32],> 100 µM
same,GI50,[35],0.437 µM
same,TGI,[35],1.91 µM
same,TGI,[37],> 100 µM
same,TGI,[38],> 100 µM
same,TGI,[43],> 100 µM
same,TGI,[45],0.0135 µM
same,TGI,[48],> 100 µM
same,TGI,[49],> 100 µM
same,GI50,[50],0.0157 µM
same,TGI,[50],> 100 µM
same,TGI,[53],> 100 µM
same,GI50,[54],0.0552 µM
same,TGI,[54],> 100 µM
same,TGI,[56],> 100 µM
same,GI50,[58],0.0605 µM
same,TGI,[58],> 100 µM
